Experimental data as given in article PMC13267291, “In vivo functional profiling and structural characterization of the human GLP1R A316T variant” (Science Advances, 2026).

Columns and labels:
[1] = test system: SNAP/FLAG-hGLP1R^A316T versus ^WT; assay: Insulin secretion in EndoC-βH3 GLP1R^-/--enriched cells; type: cell-based, human; details: 15 mM glucose + 100 nM, 60 min; n = 4; Fig. 6C,D
Experimental: Purified mouse islets used for insulin secretion assays were treated in 24-well nonadherent plates. Eight islets were used per replicate with three technical replicates per condition. For acute studies, islets were preincubated for 1 hour in KRBH buffer containing 0.1% (w/v) bovine serum albumin (BSA) (10775835001, Roche) and 3 mM glucose before incubation with 11 mM glucose ± 100 nM GLP-1RAs or the GLP-1R antagonist exendin-9 in KRBH buffer in a shaking 37°C water bath (80 rpm) for 1 hour. For overnight studies, preincubation was carried out in RPMI 1640 medium containing FBS, P/S, and 3 mM glucose, followed by treatment with medium supplemented with 11 mM glucose ± GLP-1RAs for 16 hours. […] Insulin secretion assays with the human EndoC-βH3 cell line were performed following 3 weeks of treatment with 4-hydroxytamoxifen as above, followed by transduction with pAV-SNAP/FLAG-hGLP1R^WT or ^A316T adenoviruses, with insulin secretion assessed as previously described ([54]), with the following modifications: After preincubation with 0.5 mM glucose KRBH buffer, cells were stimulated with 15 mM glucose ± exendin-4 for 60 min. Total and secreted insulin samples from islets and cells were stored at −20°C until quantification using an Insulin Ultra-Sensitive HTRF kit (#62IN2PEG, Revvity) in a PHERAstar plate reader (BMG Labtech), according to the manufacturer’s instructions.

[2] = test system: hGLP1R^A316T/+ versus hGLP1R^+/+ mice; assay: IPGTT after GLP-1RA, HFHS-fed heterozygous mice; type: in vivo, mouse; details: HFHS diet; 2 nmol/kg; n = 7; fig. S5G,H
Experimental: All animal procedures were approved by the British Home Office under the UK animals (Scientific Procedures) Act 1986 (Project License number PP7151519 to A. Martinez-Sanchez, Imperial College London, UK) and from the local ethical committee (Animal Welfare and Ethics Review Board) at the Central Biological Services unit of Imperial College London. Animals were housed in groups of up to four adult mice in individually ventilated cages under controlled conditions at 21° to 23°C with 12-hour:12-hour light-to-dark cycles (lights on at 07:00). Ad libitum access to water and feed was provided unless otherwise stated. Lean mice were fed a standard chow diet [RM1 (E); Special Diet Services]. For HFHS diet studies, animals were put on a 58 kcal % fat and sucrose diet (D12331, Research Diets Inc.) ad libitum for 10 to 14 weeks before experiments.
To examine acute and prolonged glycemic responses to GLP-1RAs, animals were fasted for 2 hours, starting at 8 a.m. on the morning of the experiments, before IPGTTs. GLP-1RAs were then coadministered at the indicated concentrations with 20% (w/v) D-glucose via intraperitoneal injection at weight-adjusted volumes. Baseline glucose readings were taken via tail venipuncture, and subsequent readings were taken at various time points after glucose ± GLP-1RA administration as for the OGTTs (0-hour acute IPGTTs). […]

exendin-4
Agonist-stimulated insulin secretory fold increases, A316T versus WT [1]: significantly reduced
Desensitization 6 hours postagonist, A316T/+ versus +/+ [2]: significantly increased desensitization
